Measured values reported in patent publication US20240083839A1, “COMPOSITIONS AND METHODS FOR TREATING NEURODEGENERATIVE DISEASES AND DISORDERS” (The Regents of the University of California, priority 2020, published 2024).
Several values for one entry are separate records, joined by “and”; a condition that tells them apart may be missing. Identical values can stand only once.

Experiments:
[1] = test system: SirT1 levels in N2a-E4 cells; test: SirT1 levels by AlphaLISA in ApoE4-transfected N2a cells; type: cell-based, murine; conditions: for SirT1 increase: N2a-E4 cells
Method: Prompted by the emerging importance of the associations between ApoE4 and the expression/protein levels of SirT1, high-throughput screening (HTS) of the UCLA compound library was performed using AlphaLISA to detect SirT1 levels in murine neuroblastoma cells stably transfected with ApoE4 (E4-N2a) to identify SirT1 enhancers. […] In the in vivo study, mice were treated orally at 40 mkd (20 mg/kg BID) for 56 days and underwent assessment of cognition in the Novel Object Recognition (NOR) testing paradigm. […] The performance of A03-treated E4-AD mice (FIG. 5A) improved to level of non-transgenic vehicle-treated mice.
Throughout, for PAMPA: unit not given here.

Row | SMILES | SirT1 SOμM [1] | SirT1 SμM [1] | PAMPA (PAMPA) | SirT1 increase [1]
1 | C[C@H](N)C(=O)OC1(Cc2ccc(Cl)cc2)CCNC1 (single isomer, unassigned) [MP-32, 3-(4-chlorobenzyl)pyrrolidin-3-yl L-alaninate] | C (C = 100% increase versus control) | A (A >20%) | 0.68 | 
2 | C[C@H](N)C(=O)OC1(Cc2ccc(Cl)cc2)CCNC1 (single isomer, unassigned) [MP-33, 3-(4-chlorobenzyl)pyrrolidin-3-yl L-alaninate] | C (C = 100% increase versus control) | A (A >20%) | 0.7 | 
3 | C[C@@H](N)C(=O)OC1(Cc2ccc(Cl)cc2)CCNCC1 (stereo in doubt) [MP-49, 4-(4-chlorobenzyl)piperidin-4-yl alaninate] | B (B >50%) | A (A >20%) | 1.02(2) | 
4 | CC(C)(Cc1ccc(Cl)cc1)OC(=O)C(N)Cc1ccccc1 (centres unmarked) [MP-01, 1-(4-chlorophenyl)-2-methylpropan-2-yl 2-amino-3-phenylpropanoate] | A, A (A >20%) | A, A (A >20%) | 4.72 | 
5 | CC(N)C(=O)OC(C)(C)Cc1ccccc1 (centres unmarked) [MP-02, 2-methyl-1-phenylpropan-2-yl 2-aminopropanoate] | A, A (A >20%) | A, A (A >20%) | 3.17 | 
6 | CC(N)C(=O)OC(C)(C)Cc1ccc(F)c(F)c1 (centres unmarked) [MP-03, 1-(3,4-difluorophenyl)-2-methylpropan-2-yl 2-aminopropanoate] | C (C = 100% increase versus control) | B (B >50%) | 2.37 | 
7 | CC(N)C(=O)OC(C)(C)Cc1ccc(F)cc1 (centres unmarked) [MP-04, 1-(4-fluorophenyl)-2-methylpropan-2-yl 2-aminopropanoate] | B (B >50%) | A (A >20%) | 2.75 | 
8 | CC(C)CC(N)C(=O)OC(C)(C)Cc1ccc(Cl)cc1 (centres unmarked) [MP-05, 1-(4-chlorophenyl)-2-methylpropan-2-yl 2-amino-4-methylpentanoate] | B (B >50%) | A (A >20%) | 5.63 | 
9 | Cc1ccc(CC(C)(C)OC(=O)C(C)N)cc1 (centres unmarked) [MP-06, 2-methyl-1-p-tolylpropan-2-yl 2-aminopropanoate] | B (B >50%) | A (A >20%) | 4.22 | 
10 | CC(C)(Cc1ccc(Cl)cc1)OC(=O)CN [MP-07, 1-(4-chlorophenyl)-2-methylpropan-2-yl 2-aminoethanoate] | B (B >50%) | A (A >20%) | 4.15 | 
11 | CC(C)C(N)C(=O)OC(C)(C)Cc1ccc(Cl)cc1 (centres unmarked) [MP-08, 1-(4-chlorophenyl)-2-methylpropan-2-yl 2-amino-3-methylbutanoate] | C (C = 100% increase versus control) | A (A >20%) | 4.65 | 
12 | CC(N)C(=O)OC1(Cc2ccc(Cl)cc2)CCC1 (centres unmarked) [MP-09, 1-(4-chlorobenzyl)cyclobutyl 2-aminopropanoate] | A, A (A >20%) | A, A (A >20%) | 4.16 | 
13 | CC(N)C(=O)OC1(Cc2ccc(Cl)cc2)CCCCC1 (centres unmarked) [MP-10, 1-(4-chlorobenzyl)cyclohexyl 2-aminopropanoate] | B (B >50%) | A (A >20%) | 6.58 | 
14 | CCC(C)C(N)C(=O)OC(C)(C)Cc1ccc(Cl)cc1 (centres unmarked) [MP-11, 1-(4-chlorophenyl)-2-methylpropan-2-yl 2-amino-3-methylpentanoate] | A, A (A >20%) | A, A (A >20%) | 5.28 | 
15 | CC(N)C(=O)OC(C)(C)CCc1ccc(Cl)cc1 (centres unmarked) [MP-12, 4-(4-chlorophenyl)-2-methylbutan-2-yl 2-aminopropanoate] | A, A (A >20%) | A, A (A >20%) | 4.95 | 
16 | CC(C)(Cc1ccc(Cl)cc1)OC(=O)C(N)CCCCN (centres unmarked) [MP-13, 1-(4-chlorophenyl)-2-methylpropan-2-yl 2,6-diaminohexanoate] | C (C = 100% increase versus control) | A (A >20%) | 6.49 | 
17 | CC(N)C(=O)OC(C)(C)Cc1cc(F)cc(F)c1 (centres unmarked) [MP-14, 1-(3,5-difluorophenyl)-2-methylpropan-2-yl 2-aminopropanoate] | A, A (A >20%) | A, A (A >20%) | 2.17 | 
18 | CC(N)C(=O)NC(C)(C)Cc1ccc(Cl)cc1 (centres unmarked) [MP-15, 2-amino-N-(1-(4-chlorophenyl)-2-methylpropan-2-yl)propanamide] | B (B >50%) | A (A >20%) | 2.74 | 
19 | CC(C)(Cc1ccc(Cl)cc1)OC(=O)C(N)CO (centres unmarked) [MP-16, 1-(4-chlorophenyl)-2-methylpropan-2-yl 2-amino-3-hydroxypropanoate] | A, A (A >20%) | A, A (A >20%) | 2.53 | 

Row | SMILES | SirT1 SOμM [1] | SirT1 SμM [1] | PAMPA (PAMPA) | SirT1 increase [1]
20 | CC(C)(Cc1ccc(Cl)cc1)OC(=O)CCN [MP-17, 1-(4-chlorophenyl)-2-methylpropan-2-yl 3-aminopropanoate] | C (C = 100% increase versus control) | A (A >20%) | 3.86 | 
21 | C[C@H](N)CC(=O)OC(C)(C)Cc1ccc(Cl)cc1 [MP-18, (S)-1-(4-chlorophenyl)-2-methylpropan-2-yl 3-aminobutanoate] | A (A >20%) | a (a <250%) | 4.01(2) | 
22 | CC(C)(Cc1ccc(Cl)cc1)OC(=O)C1CCCCN1 (centres unmarked) [MP-19, 1-(4-chlorophenyl)-2-methylpropan-2-yl piperidine-2-carboxylate] | A, A (A >20%) | A, A (A >20%) | 2.61 | 
23 | CC(C)(Cc1ccc(Cl)cc1)OC(=O)C1CCCN1 (centres unmarked) [MP-20, 1-(4-chlorophenyl)-2-methylpropan-2-yl pyrrolidine-2-carboxylate] | B (B >50%) | A (A >20%) | 2.66 | 
24 | CC(N)C(=O)NC(C)(C)Cc1ccc(F)c(F)c1 (centres unmarked) [MP-22, -amino-N-(1-(3,4-difluorophenyl)-2-methylpropan-2-yl)propanamide] | C (C = 100% increase versus control) | A (A >20%) | 1.7 | 
25 | CNC(C)C(=O)OC(C)(C)Cc1ccc(Cl)cc1 (centres unmarked) [MP-23, 1-(4-chlorophenyl)-2-methylpropan-2-yl 2-(methylamino)propanoate] | a, a (a <250%) | a, a (a <250%) | 3.03 | 
26 | CC(C)(Cc1ccc(F)c(F)c1)NC(=O)C1CCCN1C(=O)OC(C)(C)C (centres unmarked) [MP-24, tert-butyl 2-(1-(3,4-difluorophenyl)-2-methylpropan-2-ylcarbamoyl)pyrrolidine-1-carboxylate] | a, a (a <250%) | a, a (a <250%) | 1.27 | 
27 | CC(C)(Cc1ccc(F)c(F)c1)NC(=O)C1CCCN1 (centres unmarked) [MP-25, N-(1-(3,4-difluorophenyl)-2-methylpropan-2-yl)pyrrolidine-2-carboxamide] | B (B >50%) | A (A >20%) | 1.23(2) | 
28 | CC(N)C(=O)OC(Cc1ccc(Cl)cc1)c1ccccc1 (centres unmarked) [MP-26] | A, A (A >20%) | A, A (A >20%) | 3.45 | 
29 | C[C@@H](N)C(=O)NC(C)(C)Cc1ccc(Cl)cc1 [MP-27, (R)-2-amino-N-(1-(4-chlorophenyl)-2-methylpropan-2-yl)propanamide] | a, a (a <250%) | a, a (a <250%) | 2.72 | 
30 | C[C@H](N)C(=O)NC(C)(C)Cc1ccc(Cl)cc1 [MP-28, (S)-2-amino-N-(1-(4-chlorophenyl)-2-methylpropan-2-yl)propanamide] | B (B >50%) | A (A >20%) | 2.78 and 2.86 | 
31 | CC(C)(Cc1ccc(Cl)cc1)NC(=O)C(C)(C)N [MP-29, 2-amino-N-(1-(4-chlorophenyl)-2-methylpropan-2-yl)-2-methylpropanamide] | a, a (a <250%) | a, a (a <250%) | 2.1 | 
32 | C[C@H](N)C(=O)NC(C)(Cc1ccc(Cl)cc1)c1ccc(Br)cc1 (some centres unmarked) [MP-30] | A, A (A >20%) | A, A (A >20%) | 2.89 | 
33 | C[C@H](N)C(=O)OC1(Cc2ccc(Cl)cc2)CCCC1 [MP-34, 1-(4-chlorobenzyl)cyclopentyl alaninate] | A, A (A >20%) | A, A (A >20%) | 4.92 | 
34 | C[C@H](N)C(=O)NC(C)(C)Cc1ccc(F)c(F)c1 [MP-35, (S)-2-amino-N-(1-(3,4-difluorophenyl)-2-methylpropan-2-yl)propanamide] | A, A (A >20%) | A, A (A >20%) | 1.7 | 
35 | C[C@@H](N)C(=O)NC(C)(C)Cc1ccc(F)c(F)c1 [MP-36, (R)-2-amino-N-(1-(3,4-difluorophenyl)-2-methylpropan-2-yl)propanamide] | a, a (a <250%) | a, a (a <250%) | 1.66 | 
36 | Cl.N[C@H]1Cc2cc(Cl)ccc2CNC1=O [MP-109, (S)-4-amino-7-chloro-4,5-dihydro-1H-benzo[c]azepin-3(2H)-one] | B (B >50%) | A (A >20%) |  | increases SirT1
37 | CNCCC(Oc1ccc(C(F)(F)F)cc1)c1ccccc1 (centres unmarked) [fluoxetine, reference compound] |  |  |  | did not increase SirT1
38 | CC12CC3CC(C)(C1)CC(N)(C3)C2 [memantine, reference compound] |  |  |  | did not increase SirT1
